Columns and labels:
TF-1 cells = experiment: TF-1 cell proliferation assay; assay type: cell-based, human
Procedure: The murine hematopoietic cell line Baf3 was maintained in RPMI 1640 medium supplemented with 10% fetal calf serum (FCS) and murine IL-3 (20 units/ml) as described previously in Damen et al., J. Biol. Chem. 270, 23402 (1995). Human myeloid cell line TF-1 was maintained in RPMI 1640 supplemented with 10% FCS and 40 ng/ml of recombinant human GM-CSF as described previously in Thomassen et al., Clin. Immunol. 95, 85 (2000). For cell proliferation assays, cells were washed in 10% FCS medium twice, resuspended in 10% FCS medium, incubated at 37° C. for 16 hours, and then cultured at 37° C. in 10% FCS medium containing various amounts of cytokines, sodium stibogluconate, or potassium antimonyl tartrate for 3-6 days as indicated. The cell numbers in proliferation assays were determined by an MTT assay or by microscopic cell counting as indicated.

[1] = Toxicity in nude mice (viability, body weight); assay type: in vivo
Procedure: In light of the relatively rapid rate of clearance of the drug in vivo, 440 mg Sb/kg dosage was used to ensure the detection of the effectiveness of the drug for this initial study.
As discussed above, the dosage of sodium stibogluconate used for the treatment of nude mice was 12 mg Sb/mouse, s.c., daily (or approximately 440 mg/kg body weight). […] As an initial step to assess the toxicity of such a high dosage of sodium stibogluconate in nude mice, the effect of sodium stibogluconate on the viability and body weights of WM9 xenografts nude mice during the 25 day period of the study was determined.

NB4 cells = experiment: NB4 cell cycle analysis and Annexin V/propidium iodide assay; assay type: cell-based, human
Procedure: […] Briefly, the cells were fixed in cold ethanol and incubated for 30 minutes at 4° C. in the dark with a solution of […], 1 mg/ml RNase and 0.1% NP-40. Analysis was performed immediately after staining using the CELLFIT program (Becton Dickinson, Mountain View, Calif.).
] Annexin V staining of exposed membrane phospholipid phosphatidylserine (PS) was done using the Annexin V assay kit (Pharmingen, San Diego, Calif.). Briefly, NB4 cells were cultured in the 10% FCS RPMI 1640 medium in the absence or presence of sodium stibogluconate (250 µg/ml) or ATRA (1 µM) for 3 days. Cells were then washed in PBS twice and stained in binding buffer (10 mM Hepes, pH 7.4; 140 mM NaCl; 2.5 mM CaCl2) containing Annexin V-FITC and propidium iodide for 15 min. The reaction was stopped by adding 10 volumes of binding buffer and analyzed by FACS (Becton Dickinson Facsvantage).

DU145 tumors = DU145 tumors in athymic nude mice, sodium stibogluconate alone; conditions: mouse, in vivo
Procedure: Athymic nude mice (nu/nu, NCR), 4 weeks old (Taconic), were inoculated (s.c.) in the flanks with DU145 cells (3×10^6 cells/site) on day 0, Starting on day 2, the mice were subjected to no treatment (Control) or treatment with sodium stibogluconate (12 mg, […], daily, i.m., at the hip area). The dosage of sodium stibogluconate used in the study was similar to the effective daily dose of sodium stibogluconate for the treatment of murine leishmaniasis (Murray, et al. 1988). Tumor volume was measured and calculated using the formula for a prolate spheroid (V=4/3 7 a^2b) (Lindner, et al. 1997). Hematoxylin+Eosin (H.E.) stained tissue sections of internal organs and tumor inoculation sites tissues of the mice were prepared and subjected microscopic evaluation.
Nude mice were inoculated with DU145 cells sub-cutaneously at the shoulder area. Two days after inoculation when tumors were visible, the mice were subjected to no treatment (control) or sodium stibogluconate treatment (daily injection of 440 mg/kg, intermuscular at the hip area). […] Histology of their major organs was unremarkable.

[2] = test system: WM9 transfectants (vector, PRL-1, PRL-1R86); experiment: Growth of WM9 transfectants, MTT assay; assay type: cell-based, human; conditions: 50 or 100 μg/ml
Procedure: NIH3T3 (Yi, et al., Blood 85, 87 (1995)), WM9 (Forsberg, et al., Proc. Nat. Acad. Sci. USA 90, 393 (1993)), DU145 (Mickey, et al., Cancer Res. 37, 4049 (1977)), LoVo (Drewinko, et al., Cancer Res. 36, 467 (1976)), HEY (Buick, et al., Cancer Res. 45, 3668 (1985)), U251 (Yoshida, et al., Cancer 50, 410 (1982)), A549 (Giard, et al., J. Natl. Cancer Inst. 51, 1417 (1973)) and SK-N-SH (Helson, et al., Cancer Res. 35, 2594 (1975)) cell lines have been described and were cultured in RPMI 1640 supplemented with 10% fetal calf serum (FCS). For measurement of sodium stibogluconate effects on cell growth in vitro, cells were cultured in the absence (−) or presence (+) of various amounts of sodium stibogluconate for 6 days with viable cells quantified by MTT assays (Mosmann, J. Immunol. Methods 65, 55 (1983)). Percentages of growth inhibition by sodium stibogluconate were calculated (.+−.x %).
The effects of sodium stibogluconate on intracellular PTPases were assessed using NIH3T3 or WM9 transfectants. […]
To further assess whether expression of the PRL-1R86 mutant affects sodium stibogluconate-induced growth inhibition, the transfectants were cultured in the absence or presence of sodium stibogluconate for 6 days with viable cells determined by MTT assays. […]

For `O.O.O.O.O.O.O.O.O.O=C([O-])[C@@H]1[O][Sb]2([O-])([O][Sb]34([OH])[O][C@H]([C@H](O)CO)[C@H]([O]3)[C@H](C(=O)[O-])[O]4)[O][C@H]([C@H](O)CO)[C@@H]1[O]2.[Na+].[Na+].[Na+]` [sodium stibogluconate], the “GM-CSF-induced proliferation of TF-1 cells” value (TF-1 cells; 50 μg/ml, GM-CSF 5-40 ng/ml) was “augmented”, the “effect on GM-CSF-induced cell growth” value (TF-1 cells; low doses 12.5-50 μg/ml) was “no negative effect” and the tolerability ([1]; 12 mg Sb daily (440 mg Sb/kg daily)) was “well tolerated with no serious side effects”. For the same compound, the “tolerated daily dose in mice, pilot study” value ([1]; approximately 700-800 mg Sb/kg) was 20 mg Sb, the “survival of WM9-inoculated nude mice” value ([1]; day 25) was “survived until the end of the study” and the “Annexin V staining of NB4 cells” value (NB4 cells; 250 μg/ml for 6 days) was “stained positive by Annexin V”. The “cell cycle distribution of NB4 cells” value (NB4 cells; 3 days, sodium stibogluconate 250 μg/ml, ATRA 1 μM) was “significant increase of cells at S phase”, the “histology of major organs” value (DU145 tumors) was “unremarkable” and the survival of mice (DU145 tumors) was “survived until the end of the study”. The “growth inhibition of R86 cells” value [2] was “only modest growth inhibition”.

Source: patent US20080089860A1, “Therapeutic compositions and methods useful in treating cancer” (priority 2006, published 2008)
